From ChEMBL document CHEMBL1144564, “Discovery of Helicobacter pylori shikimate kinase inhibitors: bioassay and molecular modeling” (Bioorg Med Chem, 2007)

Experiments:
Shikimate kinase [1] = target: T1, Shikimate kinase (Helicobacter pylori (strain ATCC 700392 / 26695) (Campylobacterpylori), UniProt P56073); assay: Binding affinity to Helicobacter pylori SS1 recombinant shikimate kinase expressed in BL21 (DE3) cells by SPR assay
Shikimate kinase [2] = target: T1, Shikimate kinase; assay: Inhibition of Helicobacter pylori SS1 recombinant shikimate kinase expressed in BL21 (DE3) cells in presence of varying MgATP levels by double coupled assay; type: cell-based
Shikimate kinase [3] = target: T1, Shikimate kinase; assay: Inhibition of Helicobacter pylori SS1 recombinant shikimate kinase expressed in BL21 (DE3) cells by double coupled assay; type: cell-based
Shikimate kinase [4] = target: T1, Shikimate kinase; assay: Inhibition of Helicobacter pylori SS1 recombinant shikimate kinase expressed in BL21 (DE3) cells in presence of varying shikimate levels by double coupled assay; type: cell-based

T1 sequence (P56073 whole entry): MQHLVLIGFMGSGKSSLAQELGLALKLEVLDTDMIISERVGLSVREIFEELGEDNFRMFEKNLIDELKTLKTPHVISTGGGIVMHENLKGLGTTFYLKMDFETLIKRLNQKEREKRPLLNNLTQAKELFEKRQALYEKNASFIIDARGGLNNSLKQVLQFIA

Kd (Shikimate kinase [1]) [µM]	Ki (Shikimate kinase [2]) [µM]	IC50 (Shikimate kinase [3]) [µM]	Ki (Shikimate kinase [3]) [µM]	Ki (Shikimate kinase [4]) [µM]	SMILES
3.74	7.92	6.4	2.19	–	O=C1NN(c2ccc(Cl)c(Cl)c2)C(=O)/C1=C\c1ccc(-c2ccc(Br)cc2C(=O)O)o1
4.39	7.18	5.5	9.48	10.7	COc1cc(C=O)ccc1OCc1ccccc1COc1ccc(/C=C2/SC(=S)NC2=O)cc1OC
